From patent publication US20070202547A1, “Methods For Detecting Substances Which Bind To The Amyloid Precursor Protein Or Beta Amyloid Fragments, And Binding Compounds” (priority 2004, published 2007)
pIC50: −log10 of the molar value.

What was measured:
[1] = tested on: H4 neuroglioma cells expressing CTF99; assay: Secreted Aβ42 and Aβ40 in H4 neuroglioma cells expressing CTF99 (ECL); assay type: cell-based; conditions: 20 h treatment, conditioned media, FIG. 4
Protocol: The compound of Example 1 was titrated into H4 neuroglioma cells expressing CTF99. The cells were treated with the compound of Example 1 for 20 h and conditioned media was harvested.

[2] = tested on: BACE1; assay: BACE cleavage of the full length APP; assay type: biochemical; conditions: result in words
[3] = target: T1, BACE2 (Homo sapiens, UniProt P05067, K670N/M671F/D672E/A673V); assay: BACE2 cleavage of APP at the beta-secretase cleavage site (ALPHA); assay type: biochemical; conditions: result in words
T1 construct: IC50, BACE2 cleavage of APP at the beta-secretase cleavage site; other: MBP-biotinylated APP fusion protein with NFEV s; activity against BACE2 cleavage of APP at the beta-secretase position; other: result in words; biotin label
Protocol: (§1) The effect of Examples 1-4 on cleavage of APP at the beta-secretase cleavage site was assayed as follows:
(§2) • 25 μL 0.2 M Sodium Acetate, pH 4.5 • 10 μL 10× protease inhibitor cocktail (Roche, cat # 1836153) • 10 μL Bovine Serum Albumin (1 mg/mL solution) • 4 μL 5% CHAPS • 1 μL EDTA (150 mM, pH 4.5) • 2 μL DF • 4 μL MBP(Maltose binding protein)—biotininylated APP fusion protein containing the NFEV BACE cleavage site (bacterially expressed, 10 μM solution) • 1 μL DMSO or compound dissolved in DMSO • 2 μL BACE2 (CHO cell expressed protein, 250 nM) • 41 μL distilled water The reactions were incubated at 37° C. for 30 minutes, and were then quenched with 4 μL 1 M TrisHCl, pH 8.0. Detection of MBP Biotin APP(NF) Cleavage Product using ALPHA ALPHA Assay Mix was Prepared as Follows: • 20 μL Streptavidin Donor Beads (from AlphaScreen General IgG (Protein A) Detection Kit Perkin Elmer Life Sciences); 10,000 pts (Part Number 6760617M) • 20 μL Protein A Acceptor beads (from AlphaScreen General IgG (Protein A) Detection Kit Perkin Elmer Life Sciences); 10,000 pts (Part Number 6760617M) • 3.7 μL Affinity purified anti-NF antibody (203 μg/mL) (described in WO 02/094985) • 4.5 mL 0.1% BSA in PBS • 4 μL of quenched reaction mixture was combined with 46 μL of the assay mix. The reactions were incubated at room temperature overnight and read using the ALPHAQuest plate reader.

[4] = target: T2, BACE2 (Homo sapiens, UniProt P05067, A673V/D672E/K670N/M671F); assay: as above; assay type: biochemical; conditions: MBP-biotinylated APP fusion protein with NFEV site, pH 4.5, 30 minutes
T2 construct: IC50, BACE2 cleavage of APP at the beta-secretase cleavage site; other: MBP-biotinylated APP fusion protein with NFEV s; activity against BACE2 cleavage of APP at the beta-secretase position; other: result in words; biotin label
Protocol: as §1, §2

[5] = target: T3, sAPPβ (Homo sapiens, UniProt P05067); assay: Biacore S51 binding to immobilized biotinylated sAPPβ; conditions: Biacore S51, SA-coated sensor chip
T3 construct: Biotinylated APP and biotinylated sAPPβ were immobilized to a SA-coated sensor chip
Protocol: (§3) The compounds of formula (I) are believed to inhibit APP cleavage function by binding APP. The binding of the compound of Example 1 to APP was assayed by BiacoreS51. Biotinylated APP and biotinylated sAPPβ were immobilized to a SA-coated sensor chip. A titration of Example 1 was injected and the binding response for each concentration of Example 1 was obtained for both proteins. FIG. 5 is a graph of response units for […] (◯) or the BACE 1 inhibitor Statine-Val ( ? ) binding to APP.

[6] = target: APP (Homo sapiens, UniProt P05067); assay: Biacore S51 binding to immobilized biotinylated APP; conditions: Biacore S51, SA-coated sensor chip
Protocol: as §3

[7] = target: T4, EV-amyloid (Homo sapiens, UniProt P05067, A673V/D672E); assay: Antibody binding to EV-amyloid, ALPHA sandwich assay; conditions: 37° C., 1 hour; G2-10 and anti-NH2-EVEFR antibodies
T4 construct: An Aβ variant peptide similar to Aβ 1-40
From the text: Compounds interacting with secretase or antibody binding to the Aβ domain of APP (or an APP variant) nay also be expected to interact with Aβ or related amyloidogenic peptides. An Aβ variant peptide similar to Aβ 1-40, but with Glu and Val replacing the N-terminal two amino acids (hereafter referred to as “EV-amyloid”), as described in WO 02/094985 and US 2003/0200555 A1, was used to assess interactions between benzofurans and amyloid peptide. As with full length APP variant in Example 5, masking of antibody binding sites was used to assay the potential interactions.
The assay was carried out as follows:
• 1. A master mix of EV-amyloid peptide in binding buffer was made as follows: 10650 μL 0.1% bovine serum albumin in phosphate buffered saline, 1200 μL 10× Protease Inhibitor cocktail (Roche, cat # 1836153), 30 μL EV amyloid peptide (4 μM in DMSO). • 2. […] Interaction between EV amyloid and antibody was assessed by quantification of the EV amyloid peptide by antibody sandwich assay using ALPHA detection. • 7. […]
The solutions were incubated at room temperature for 1 hour prior to addition to the EV-amyloid binding reaction. • 8. […] The plate was incubated overnight, in the dark, at room temperature, and antibody binding to EV-amyloid was detected via ALPHA Quest.

[8] = tested on: BACE2; assay: BACE2 cleavage of EV amyloid / Aβ (mass spectrometric analysis); assay type: biochemical; conditions: 100 μM; result in words
Protocol: The effect of inhibition of BACE 2 cleavage of EV amyloid was assayed using a protocol described in Shi et al, 2003, J. Biol. Chem., 278:21286-21294. The results of assaying Examples 1-4 at 100 μM are shown below: […]

Row | SMILES | production of Aβ42 relative to Aβ40 [1] | inhibition of BACE (BACE1) cleavage/processing of full length APP [2] | activity against BACE2 cleavage of APP at the beta-secretase position [3] | pIC50 [4] | binding to sAPPβ [5] | binding to APP [6] | inhibition of antibody binding to EV amyloid [7] | effect on BACE2 cleavage at positions 19 and 20 [8]
1 | O=C(O)COc1cc2c(cc1CCCOc1ccccc1)OC(CCc1ccccc1)C2 (stereo not drawn) [Example 1, {[6-(3-phenoxypropyl)-2-(2-phenylethyl)-2,3-dihydro-1-benzofuran-5-yl]oxy} acetic acid] | decrease the production of Aβ42 relative to the production of Aβ40 | inhibit both BACE processing of APP | capable of inhibiting BACE2 cleavage of APP at the beta-secretase position with similar effectiveness to their inhibition of BACE1 cleavage at the same site | 5.05 | does not bind sAPPβ | binds APP | approximately 40% | 
2 | O=C(O)COc1cc2c(cc1CCCOc1ccccc1Cl)OC(CCc1ccccc1)C2 (stereo not drawn) [Example 2, {[6-[3-(2chlorophenoxy)propyl)-2-(2-phenylethyl)-2,3-dihydro-1-benzofuran-5-yl]oxy} acetic] |  | inhibit both BACE processing of APP | capable of inhibiting BACE2 cleavage of APP at the beta-secretase position with similar effectiveness to their inhibition of BACE1 cleavage at the same site | 5.40 |  |  | approximately 40% | substantially enhanced cleavage at positions 19 and 20
